Measurements: patent US20260315487A1, “IKK-ALPHA INHIBITORS” (Cancer Research Technology Limited, priority 2023, published 2026)

Key:
haspin = biological target: T1, haspin (Homo sapiens, UniProt Q8TF76); experiment: kinome profiling at 1 μM, haspin; type: biochemical
T1 sequence (Q8TF76 1-798): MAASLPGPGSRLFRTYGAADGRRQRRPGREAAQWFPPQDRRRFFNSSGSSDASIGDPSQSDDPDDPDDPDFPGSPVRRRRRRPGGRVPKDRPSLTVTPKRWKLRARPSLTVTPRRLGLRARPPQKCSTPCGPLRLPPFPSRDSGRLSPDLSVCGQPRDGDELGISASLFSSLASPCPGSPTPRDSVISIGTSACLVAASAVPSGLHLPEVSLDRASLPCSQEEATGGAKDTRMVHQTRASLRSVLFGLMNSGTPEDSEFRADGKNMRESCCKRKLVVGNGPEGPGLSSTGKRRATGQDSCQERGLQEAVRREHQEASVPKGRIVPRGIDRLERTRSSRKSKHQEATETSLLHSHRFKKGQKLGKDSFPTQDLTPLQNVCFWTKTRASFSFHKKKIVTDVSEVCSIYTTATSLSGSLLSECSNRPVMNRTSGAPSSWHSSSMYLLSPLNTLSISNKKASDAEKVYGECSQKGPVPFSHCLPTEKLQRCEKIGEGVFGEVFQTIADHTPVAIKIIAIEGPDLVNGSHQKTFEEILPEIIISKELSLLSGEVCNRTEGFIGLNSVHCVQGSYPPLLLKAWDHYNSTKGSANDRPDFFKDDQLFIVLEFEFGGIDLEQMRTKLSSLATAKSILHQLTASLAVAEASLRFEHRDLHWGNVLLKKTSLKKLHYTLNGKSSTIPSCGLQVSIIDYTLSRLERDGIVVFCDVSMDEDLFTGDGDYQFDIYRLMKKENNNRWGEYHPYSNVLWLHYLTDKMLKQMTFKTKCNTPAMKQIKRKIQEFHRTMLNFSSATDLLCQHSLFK
From the text: We profiled three compounds from the series across the kinome (FIG. 11). […] To identify the structural drivers for CDK inhibition, we obtained X-ray crystal structures of 5 y and 6 g SU1336 and SU1349 with CDK-2 (FIG. 12A) to potentially identify possible routes towards introducing selectivity for IKKα over the CDK enzymes as well as IKKβ. […] All three derivatives form complexes with CDK2 with the pyrrolo[2,3 -b]pyridine H-bonding to GK+3 (Leu 83 ) and the aminoindazole projected towards the G-loop (FIG. 12A), forming H-bonds with Glu 51 and Lys 33 at the back of the pocket. The adoption of the 4 SU1253 -type orientation, rather than the flipped pose observed in IKKα, is probably facilitated by Tr-stacking between the aminoindazole and the GK residue, which in the CDKs is Phe, rather than Met. […] For 6 g SU1349, the hydrophobic pendant benzyloxy group points out into solvent, but can form face-to-edge Tr-Tr interactions with Phe 82 and His 84 from the hinge. Exchanging the hydrophobic pendant benzyloxy group for the morpholinoethyl-containing substituent in 5 y SU1336 removes any direct interaction with these hinge residues, preferring to sit in a more solvent-exposed position, as befits a basic side chain that will be protonated at physiological pH (FIG. 12B).

mouse hepatocytes = experiment: mouse hepatocyte clearance (cryopreserved pooled mouse CD1 hepatocytes); type: in vitro ADME; details: mouse hepatocytes
Procedure: Pharmacokinetic studies were contracted to Sygnature Discovery Limited. Intrinsic clearance and half life were determined using cryopreserved pooled mouse CD1 hepatocytes. Test compounds were analysed at 1 μM in Williams Media E buffer (0.01 % DMSO) at a cell density of 0.5×10^6 cells mL^−1 . Cells were incubated at 37° C. for one hour with shaking and compound depletion was measured by LC-MS/MS at six timepoints (0.25, 5, 10, 20, 40, and 60 minutes).

IKKα over IKKβ = experiment: selectivity for IKKα over IKKβ from the kinase assay; type: biochemical
From the text: To examine the pyrrolo[2,3 -b]pyridines as an alternative scaffold, we adopted the AIPP core because it had similar dimensions to 1 SU909, with HBD/HBA motifs positioned at the scaffold extremities to interact with both the hinge region and the G-loop wall of IKKα, a rationale we had previously proposed as the basis for imparting selectivity. A preliminary set of AIPP derivatives was designed to explore its utility as an IKK-targeting scaffold, whilst incorporating additional functionality through which to introduce selectivity for the IKKα isoform (2-4 SU1087, SU1266 and SU1253; FIG. 3). This was achieved by initially adopting two different approaches: either appending a hydrophobic moiety to the pyrrolo[2,3 -b]pyridine motif as a fused form to afford the tricyclic derivatives 2 and 3 SU1266 and SU1087, or as a phenyl substituent to introduce flexibility with the central pyrrolo[2,3 -b]pyridine moiety in 4 SU1253 . […] The pyrrolo[2,3 -b]pyridine was bound to the hinge region in the classical HBA/HBD motif with the GK+3 NH and C═O backbone, whilst the aminoindazole projected towards the top of the pocket to interact with the G-loop (FIG. 4A). […] In both isoforms, the 2 -phenyl moiety was oriented out from the hinge towards the exposed solvent area.
To shift the selectivity profile towards IKKα, we selected 4 SU1253 for structural optimization based on the notion that sigma-bond rotation between the phenyl ring and the pyrrolo[2,3 -b]pyridine would inbuild the flexibility required to engage with the three dimensional array of residues nearby to exploit differences between the two isoforms. Furthermore, this would enable the inclusion of moieties that could also project into solvent and address solubility considerations. Small groups (NH2, OH, OMe, OEt and F) were initially introduced into the phenyl ring to evaluate their impact on the selectivity profile against both IKKs (5 a-g SU1354 -SU1373, Table 2 ). Our goal was to achieve a 1:50 selectivity ratio of IKKα to IKKβ, with a minimum IKKβ inhibitory Ki of 500 nM.

Row | SMILES | inhibition at 1 µM (haspin) [%] | in vitro murine clearance, in words (mouse hepatocytes) | selectivity for IKKα over IKKβ, in words (IKKα over IKKβ) | selectivity for IKKα over IKKβ (IKKα over IKKβ; ratio of Ki) [fold]
1 | Nc1n[nH]c2ccc(-c3ccnc4[nH]c(-c5cccc(OCc6ccccc6)c5)cc34)cc12 [5r SU1261, 5-(2-(3-(benzyloxy)phenyl)-1 H-pyrrolo[2,3-b]pyridin-4-yl)-1 H-indazol-3-amine] | > 80 |  |  | 
2 | Nc1n[nH]c2ccc(-c3ccnc4[nH]c(-c5ccnc(OCc6ccccc6)c5)cc34)cc12 [6g SU1349, 5-(2-(2-(Benzyloxy)pyridin-4-yl)-1 H-pyrrolo[2,3-b]pyridin-4-yl)-1 H-indazol-3-amine] |  | sufficiently low in vitro murine clearance | essential selectivity profile | 209
